Measurements as given in patent publication US10662203B2, “Pyrido[2,3-b]indole compounds for the treatment and prophylaxis of bacterial infection” (Hoffmann-La Roche Inc., priority 2017, dated 2020).
In brackets after ≈: the same amount, converted by molar mass. Where two headings read alike, the source gives them in different places.

What was measured:
[1] = Single dose PK study (SDPK) in female CD-1 mouse; assay type: in vivo; conditions: MOUSE IV; for clearance: female, CD-1, plasma, read-out: CL total
Protocol: Single Dose PK Study (SDPK) in Female CD-1 Mouse: The single dose PK in female CD-1 mouse was performed to assess compound's pharmacokinetic properties. One group of animals were dosed via bolus intravenous (IV) of the respective compound. Blood samples (approximately 30 μL) were collected via saphenous vein at 5 mins, 15 min, 30 min, 1 hr, 2 hr, 4 hr and 7 hr. For last time point (24 hr), samples were collected via cardiac puncture while the mouse was under anesthesia. Blood samples were placed into tubes containing EDTA-K2 anticoagulant (2 μL of 0.5M per tube) and centrifuged at 3000 rpm for 10 minutes at 4° C. within half an hour to separate plasma from the samples. Following centrifugation, plasma samples were stored in polypropylene tubes, quick frozen over dry ice and kept at −70±10° C. until LC/MS/MS analysis. The pharmacokinetic parameters were calculated using non-compartmental module of WinNonlin® Professional 6.4.

[2] = test system: S. aureus (ATCC29213); test: 50% growth inhibitory concentration (IC50) determination assay; assay type: cell-based; conditions: Staphylococcus aureus, Iso-Sensitest broth, 0.098 = detection limit
Method in brief: (§1)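 Growth was tracked as optical density at 600 nm every 20 minutes for 16 h at 35±2° C, giving IC50 values. Inocula of ~5×10^5 CFU/mL in Iso-Sensitest broth faced two-fold compound dilutions spanning 50 to 0.097 μM final.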

[3] = test system: K. pneumoniae (ATCC10031); test: as above; assay type: cell-based; conditions: Klebsiella pneumoniae, Iso-Sensitest broth, 0.098 = detection limit
Method in brief: as §1

[4] = test system: A. baumannii (ATCC17978); test: as above; assay type: cell-based; conditions: Acinetobacter baumannii, ATCC17978, A. baumannii ATCC17978; Iso-Sensitest broth; 0.098 = detection limit
Method in brief: as §1

[5] = Cytotoxicity assay (HepG2, CellTiter-Blue cell viability); assay type: cell-based; conditions: human; HepG2 cells, 3 days treatment; "*": the detection limit; read-out: CC50
Method in brief: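 HepG2 cells (1.2×10^4 per well) exposed to compounds for 3 days; viability then read by CellTiter-Blue fluorescence after 3 h at 37 °C. CC50 from four-parameter logistic fit.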

[6] = Lyophilisation solubility assay (LYSA); assay type: physicochemical; conditions: phosphate buffer, pH 6.5, aqueous buffer, thermodynamic from solid, 0.05 M phosphate buffer, HPLC-UV
Method in brief: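 Duplicate samples made from 10 mM DMSO stock. DMSO evaporated and the residue taken up in 0.05 M phosphate buffer, pH 6.5, stirred 1 h and shaken 2 h, then left overnight. Filtrate and its 1/10 dilution quantified by HPLC-UV.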

Row | Compound | AUC total ([1]; 1.0 mg/kg-Solution) | clearance ([1]; 1.0 mg/kg-Solution) | IC50 [2] | IC50 [3] | IC50 [4] | AUC total ([1]; 0.7 mg/kg-Solution) | clearance ([1]; 0.7 mg/kg-Solution) | CC50 at 3 days [5] | solubility thermodynamic [6]
1 | CCn1cc(C(=O)O)c(=O)c2cc(-c3cnc4[nH]c5c(NC)cc(F)c(F)c5c4c3N3CC4CC3CO4)cnc21 (stereo not shown) [Example 1.05] | 162.7 ng·h/mL | 100 mL/min/kg | < 0.098 µM | < 0.098 µM | 0.725 µM |  |  |  | 
2 | CCCN(C)c1c(-c2cnc3c(c2)c(=O)c(C(=O)O)cn3CC)cnc2[nH]c3c(NC)cc(F)c(F)c3c12 [Example 1.07] |  |  |  |  |  | 260.7 ng·h/mL | 45.8 mL/min/kg |  | 
3 | CNc1cc(F)c(F)c2c1[nH]c1ncc(-c3cnc4c(c3)c(=O)c(C(=O)O)cn4CCN(C)C)c(N(C)C)c12 [Example 1.22] | 179.9 ng·h/mL | 91.3 mL/min/kg | < 0.098 µM | < 0.098 µM | 0.118 µM |  |  |  | 
4 | CNc1cc(F)c(F)c2c1[nH]c1ncc(-c3cnc4c(c3)c(=O)c(C(=O)O)cn4C)c(N3CCC(O)CC3)c12 [Example 1.43] | 235.1 ng·h/mL | 66.3 mL/min/kg | < 0.098 µM | < 0.098 µM | 0.663 µM |  |  | 39300 nM | 
5 | CNc1cc(F)cc2c1[nH]c1ncc(-c3cnc4c(c3)c(=O)c(C(=O)O)cn4NC)c(N3CCOCC3)c12 [Example 1.52] | 305.8 ng·h/mL | 57.4 mL/min/kg | < 0.098 µM | < 0.098 µM | 0.233 µM |  |  |  | 
6 | CNc1cc(F)cc2c1[nH]c1ncc(-c3cnc4c(c3)c(=O)c(C(=O)O)cn4CC(C)O)c(N3CCOCC3)c12 (stereo not shown) [Example 1.53] | 211.3 ng·h/mL | 83.5 mL/min/kg | < 0.098 µM | < 0.098 µM | 0.764 µM |  |  | > 100000 nM | 
7 | CNc1c(F)c(F)cc2c1[nH]c1ncc(-c3cnc4c(c3)c(=O)c(C(=O)O)cn4C3CCNC3)c(N(C)C)c12 (stereo not shown) [Example 1.55] | 165.9 ng·h/mL | 98.7 mL/min/kg | 0.101 µM |  | 0.334 µM |  |  | 49800 nM | 
8 | CNc1cc(F)c(F)c2c1[nH]c1ncc(-c3cnc4c(c3)c(=O)c(C(=O)O)cn4CC(N)C(C)C)c(N3CCOCC3)c12 (stereo not shown) [Example 1.57] |  |  | < 0.098 µM |  | 0.198 µM | 190.8 ng·h/mL | 84.6 mL/min/kg | 35900 nM | 
9 | CNc1cc(F)cc2c1[nH]c1ncc(-c3cnc4c(c3)c(=O)c(C(=O)O)cn4NC)c(N3CC[C@H]4CN(C)CC43)c12 (stereo partly shown) [Example 1.86] | 194.1 ng·h/mL | 86.5 mL/min/kg | 0.15 µM | < 0.098 µM | 0.175 µM |  |  | 43400 nM | > 805 µg/mL
10 | CNc1cc(F)c(F)c2c1[nH]c1ncc(-c3cnc4c(c3)c(=O)c(C(=O)O)cn4C)c(N3CC4[C@H](CCN4C)C3)c12 (stereo partly shown) [Example 1.192] | 235.0 ng·h/mL | 69.6 mL/min/kg | < 0.098 µM | < 0.098 µM | 0.105 µM |  |  |  | 58 µg/mL (≈ 104 µM)
11 | CNc1cc(F)c(F)c2c1[nH]c1ncc(-c3cnc4c(c3)c(=O)c(C(=O)O)cn4C)c(N3CC[C@H]4CCN(C)C4C3)c12 (stereo partly shown) [Example 1.196] | 177.4 ng·h/mL | 98.4 mL/min/kg | < 0.098 µM | < 0.098 µM | 0.102 µM |  |  |  | 25 µg/mL (≈ 43.6 µM)
